Laboratory results taken from patent publication US20150284353A1, “Sesquiterpene lactone-based pharmaceutical composition for treating gastrointestinal diseases” (CHO DANG PHARM. CO., LTD., priority 2012, published 2015).
Entries after “also recorded” stand apart in the source; their conditions may differ. Marks after values point to notes of the source that are not given here. Each block holds one compound with its values, some of them ahead of it.

Tests used:
[1] = test system: indomethacin inducing stomach ulcer model; assay: indomethacin inducing stomach ulcer model; assay type: in vivo, white rats; settings: oral; for ED50: regression analysis, read-out: 50% effective dose (ED50)
Method: After white rats have been fasted for 24 hours, CD-101, CD-102 and CD-103 compound have been orally administered according to method disclosed in Yamasaki et al., Jap. J. Pharmacol. 49: pp. 441-448 (1989). After 1 hour, indomethacin (50 mg/kg) has been orally administered to each animal. After fasting for 5 hours, animals have been sacrificed by cervical dislocation. After removing the stomach, the stomach has been fixed by injection of 13 ml of 2% formalin for 1 hour. After fixed stomach has been spread out, the lesion area has been measured using the photo by digital camera. Computer program Image J 1.38 (NIH, Bethesda, Md.) has been applied for measuring gastric lesion area (mm^2). The lesion inhibition rate and 50% effective dose (ED50) have been calculated as the same manner of HCl-EtOH model.

[2] = test system: HCl-Ethanol inducing gastritis model; assay: HCl-Ethanol inducing gastritis model; assay type: in vivo, white rats; settings: for ED50: regression analysis, read-out: 50% effective dose (ED50); for Lesion inhibition rate: Table 2, ineffective compounds, dose not given
Method: After white rats have been fasted for 24 hours, CD-101, CD-102 and CD-103 compound have been orally administered according to method disclosed in Mizui et al., Jap. J. Pharmacol. 33: pp. 939-945 (1983). After 1 hour, 1.5 ml of 60% ethanol including 150 mM HCl has been orally administered to each animal. 1 hour later, animals have been sacrificed by cervical dislocation. After removing the stomach, the stomach has been fixed by injection of 13 ml of 2% formalin for 1 hour. After fixed stomach has been spread out, the lesion area has been measured using the photo by digital camera. Computer program Image J 1.38 (NIH, Bethesda, Md.) has been applied for measuring gastric lesion area (mm^2). The lesion inhibition rate has been calculated according to following equation. Further, 50% effective dose (ED50) has been also calculated using regression analysis.
Lesion inhibition rate(%)={gastric lesion area of control group(mm^2)−gastric lesion area of drug administration group(mm^2)}/gastric lesion area of control group(mm^2)×100

[3] = test system: Chinese hamster lung (CHL) cell; assay: Chromosomal aberration test; assay type: cell-based; settings: for induction of chromosomal aberration: CHL cell
Description: For measuring the induction of chromosomal aberration, the chromosomal aberration test has been carried out using Chinese hamster lung (CHL) cell. 2 kinds of methods have been adopted, such as, metabolic activation method (+S9) using metabolic activation system and direct method (−S9) without metabolic activation system.
For determining the test material reacting concentration, the cell growth inhibition test has been carried out. The test material has been dissolved and diluted in dimethyl sulfoxide (DMSO). Regardless of metabolic activation system, 12 concentration steps (2.43, 4.87, 9.75, 19.5, 39.1, 78.1, 156.3, 312.5, 625, 1250, 2500, 5000 μg/ml) of test material have been prepared. The cells have been cultured for 24 hours as the same way of main test. […] The medium has been further cultured for 18 hours.
Based upon the data of cell growth inhibition test, maximum concentration has been determined when the cell growth has been inhibited up to 50% as the relative cell numbers.
Regardless of metabolic activation system, the test materials have been prepared after 24 hours from the initiation of test. Then, the number of chromosomal aberration has been counted.

[4] = Rattus norvegicus, dose 1 mg/kg, read-out: Lesion inhibition rate
[5] = Rattus norvegicus, dose 3 mg/kg, read-out: Lesion inhibition rate
[6] = Rattus norvegicus, dose 10 mg/kg, read-out: Lesion inhibition rate
[7] = Rattus norvegicus, oral, dose 1 mg/kg, read-out: Lesion inhibition rate
[8] = Rattus norvegicus, oral, dose 3 mg/kg, read-out: Lesion inhibition rate
[9] = Rattus norvegicus, oral, dose 10 mg/kg, read-out: Lesion inhibition rate

Results (chromosomal aberration) ([3]; +S9, dose 10 μg/ml): negative
Results (chromosomal aberration) ([3]; +S9, dose 20 μg/ml): negative
Results (chromosomal aberration) ([3]; +S9, dose 40 μg/ml): negative
Results (chromosomal aberration) ([3]; −S9, dose 2.5 μg/ml): negative
Results (chromosomal aberration) ([3]; −S9, dose 5 μg/ml): negative
Results (chromosomal aberration) ([3]; −S9, dose 10 μg/ml): negative
SMILES: C=C1C(=O)O[C@@H]2[C@@H](O)[C@]3(C)CC[C@H]3[C@](C)(OC)CC[C@@H]12 [CD-101]
inhibition at 1 mg/kg [1, 4]: 26.9%
inhibition at 3 mg/kg [1, 5]: 56.6%
inhibition at 10 mg/kg [1, 6]: 73.1%
ED50 ([1]; Rattus norvegicus): 2.78 ± 0.1 mg/kg
Gastric lesion area ([1]; dose 1 mg/kg): 43.8 ± 7.7 mm^2
Gastric lesion area ([1]; dose 3 mg/kg): 26.0 ± 4.7* mm^2
Gastric lesion area ([1]; dose 10 mg/kg): 16.1 ± 4.8* mm^2
inhibition at 1 mg/kg [2, 7]: 42.3%
inhibition at 3 mg/kg [2, 8]: 74.7%
inhibition at 10 mg/kg [2, 9]: 91.8%
ED50 ([2]; Rattus norvegicus, oral): 1.24 ± 0.1 mg/kg
Gastric lesion area ([2]; oral, dose 1 mg/kg): 135.1 ± 43.1 mm^2
Gastric lesion area ([2]; oral, dose 3 mg/kg): 59.3 ± 23.5* mm^2
Gastric lesion area ([2]; oral, dose 10 mg/kg): 19.2 ± 11.7* mm^2
induction of chromosomal aberration [3]: neither cytotoxicity nor chromosomal aberration; also recorded: do not induce the chromosomal aberration

SMILES: O=C(NC(Cc1cc(=O)[nH]c2ccccc12)C(=O)O)c1ccc(Cl)cc1 (stereo not drawn) [Rebamipide, reference compound]
inhibition at 50 mg/kg ([1]; Rattus norvegicus, dose 50 mg/kg, read-out: Lesion inhibition rate): 49.6%
Gastric lesion area ([1]; dose 50 mg/kg): 30.2 ± 6.4* mm^2
inhibition at 50 mg/kg ([2]; Rattus norvegicus, oral, dose 50 mg/kg, read-out: Lesion inhibition rate): 30%
Gastric lesion area ([2]; oral, dose 50 mg/kg): 163.9 ± 15.6 mm^2

Result (chromosomal aberration test) ([3]; Table 5, + S9): positive positive
Result (chromosomal aberration test) ([3]; Table 5, − S9): positive positive
SMILES: C=C1C(=O)O[C@@H]2/C=C(\C)CC/C=C(\C)C[C@@H](OC(C)=O)C12 (stereo partly drawn) [reference compound]

SMILES: C=C1CC[C@@H]2[C@](C)(CO)[C@H](O)CC[C@@]2(C)[C@@H]1C/C=C1/C(=O)OC[C@H]1O
Lesion inhibition rate [2]: no effect

Results (chromosomal aberration) ([3]; +S9, dose 5 μg/ml): negative
Results (chromosomal aberration) ([3]; +S9, dose 10 μg/ml): negative
Results (chromosomal aberration) ([3]; +S9, dose 20 μg/ml): negative
induction of chromosomal aberration [3]: do not induce the chromosomal aberration
Results (chromosomal aberration) ([3]; −S9, dose 1.25 μg/ml): negative
Results (chromosomal aberration) ([3]; −S9, dose 2.5 μg/ml): negative
Results (chromosomal aberration) ([3]; −S9, dose 5 μg/ml): negative
SMILES: C=C1CC[C@H]2C(=C)C(=O)O[C@@H]2C2[C@H]1CC[C@@]2(C)O (stereo partly drawn) [CD-102]
inhibition at 1 mg/kg [1, 4]: 41.6%
inhibition at 3 mg/kg [1, 5]: 56.1%
inhibition at 10 mg/kg [1, 6]: 77.2%
ED50 ([1]; Rattus norvegicus): 1.82 mg/kg
Gastric lesion area ([1]; dose 1 mg/kg): 35.0 ± 5.2 mm^2
Gastric lesion area ([1]; dose 3 mg/kg): 26.3 ± 6.8* mm^2
Gastric lesion area ([1]; dose 10 mg/kg): 13.6 ± 2.9* mm^2
inhibition at 1 mg/kg [2, 7]: 43%
inhibition at 3 mg/kg [2, 8]: 70.4%
inhibition at 10 mg/kg [2, 9]: 94.9%
ED50 ([2]; Rattus norvegicus, oral): 1.31 mg/kg
Gastric lesion area ([2]; oral, dose 1 mg/kg): 133.5 ± 21.0* mm^2
Gastric lesion area ([2]; oral, dose 3 mg/kg): 69.4 ± 18.4* mm^2
Gastric lesion area ([2]; oral, dose 10 mg/kg): 11.9 ± 10.0* mm^2

SMILES: CO[C@]1(C)CC[C@H]2C(CN(C)CCO)C(=O)O[C@@H]2[C@@H](O)[C@]2(C)CC[C@H]21 (stereo partly drawn)
Lesion inhibition rate [2]: no effect

SMILES: CC(C)=C1C(=O)COC1=O
Lesion inhibition rate [2]: no effect

SMILES: CO[C@@]12[C@H](COC(N)=O)C3=C(C(=O)C(C)=C(N)C3=O)N1C[C@@H]1N[C@@H]12 [Mitomycin C, reference compound]
Results (chromosomal aberration) ([3]; −S9, dose 0.5 μg/ml): positive

SMILES: CC1=C2C3OC(=O)[C@@H](C)[C@@H]3CC[C@@]2(C)C=CC1=O (stereo partly drawn)
Lesion inhibition rate [2]: no effect

Result (chromosomal aberration test) ([3]; Table 5, + S9): positive positive
Result (chromosomal aberration test) ([3]; Table 5, − S9): positive positive
SMILES: C=C1C(=O)O[C@@H]2/C=C(\C)CCC(O)C(C)(O)C[C@@H](OC(C)=O)C12 (stereo partly drawn) [reference compound]

Result (chromosomal aberration test) ([3]; Table 5, + S9): positive positive
Result (chromosomal aberration test) ([3]; Table 5, − S9): positive positive
SMILES: CC(=O)O[C@@H]1/C=C(\C)CCC/C(C)=C/[C@H]2OC(=O)[C@H](CN(C)C)C12 (stereo partly drawn) [reference compound]

SMILES: CO[C@]1(C)CC[C@H]2C(CN(C)CCO)C(=O)O[C@@H]2[C@@H]2[C@H]1CC[C@@]2(C)O (stereo partly drawn)
Lesion inhibition rate [2]: no effect

SMILES: CN(C)c1ccc(/C=C2\CCOC2=O)cc1
Lesion inhibition rate [2]: no effect

Results (chromosomal aberration) ([3]; +S9, dose 2.5 μg/ml): negative
Results (chromosomal aberration) ([3]; +S9, dose 5 μg/ml): negative
Results (chromosomal aberration) ([3]; +S9, dose 10 μg/ml): negative
induction of chromosomal aberration [3]: do not induce the chromosomal aberration
Results (chromosomal aberration) ([3]; −S9, dose 0.625 μg/ml): negative
Results (chromosomal aberration) ([3]; −S9, dose 1.25 μg/ml): negative
Results (chromosomal aberration) ([3]; −S9, dose 2.5 μg/ml): negative
SMILES: C=C1C(=O)O[C@@H]2[C@@H]3[C@@H](CC[C@@]3(C)O)[C@](C)(OC)CC[C@@H]12 [CD-103]
inhibition at 1 mg/kg [1, 4]: 37.9%
inhibition at 3 mg/kg [1, 5]: 57.3%
inhibition at 10 mg/kg [1, 6]: 74%
ED50 ([1]; Rattus norvegicus): 2.06 mg/kg
Gastric lesion area ([1]; dose 1 mg/kg): 37.2 ± 7.0 mm^2
Gastric lesion area ([1]; dose 3 mg/kg): 25.6 ± 4.7* mm^2
Gastric lesion area ([1]; dose 10 mg/kg): 15.6 ± 3.1* mm^2
inhibition at 30 mg/kg ([2]; Rattus norvegicus, oral, 30 mg/kg administration group, read-out: lesion inhibition rate): 99.5%
inhibition at 1 mg/kg [2, 7]: 56.9%
inhibition at 3 mg/kg [2, 8]: 66.9%
inhibition at 10 mg/kg [2, 9]: 99.5%
ED50 ([2]; Rattus norvegicus, oral): 2.55 mg/kg
Gastric lesion area ([2]; oral, dose 1 mg/kg): 80.8 ± 19.4* mm^2
Gastric lesion area ([2]; oral, dose 3 mg/kg): 62.1 ± 32.2* mm^2
Gastric lesion area ([2]; oral, dose 10 mg/kg): 1.0 ± 0.4* mm^2
